We go through 22 compounds from the SangsterLogP compilation.

The nature of the series: method code SF-AS, from PMID: 6637502. The settings on record: pH 5.0.
As a reminder, the logD is lipophilicity at a set pH, counting ionised and neutral species. A higher logD goes with higher lipophilicity. `Cc1ccn2c(=O)c3c(nc2c1)CCC3` returned a logD of 1.65.
Consider `CC1CCn2c(nc3c(c2=O)CCCC3)C1` (configuration not stated), for which the logD came out at 1.67.
As for `O=c1c2c(nc3n1CCCCC3)CCC2`, the figure is 1.25; as for `Cc1cccn2c(=O)ccnc12`, 0.79.
With `Cc1cnc2n(c1=O)C(C)CCC2` (configuration not stated), the pH-dependent lipophilicity (logD) is 0.82.
As for `Cc1ccn2c(=O)c3c(nc2c1)CCCC3`, the figure is 1.86.
The value for `Cc1cccc2nc3c(c(=O)n12)CCCC3` was 1.91; that for `Cc1ccc2nc3c(c(=O)n2c1)CCC3` was 1.61; that for `CC1CCCc2nc3c(c(=O)n21)CCCC3` (configuration not stated) was 1.67.
The value for `Cc1ccc2nccc(=O)n2c1` was 0.61; that for `Cc1nc2n(c(=O)c1C)CCCC2` was 0.6.
`Cc1cccc2nc3c(c(=O)n12)CCC3` displayed a logD of 1.77.
As for `O=c1c2c(nc3n1CCC3)CCC2`, the figure is 0.22; as for `Cc1cccn2c(=O)c3c(nc12)CCCC3`, 2.44.
`CC1CCCn2c1nc1c(c2=O)CCCC1` (configuration not stated) came in with a logD of 1.76.
As for `Cc1cnc2n(c1=O)CCCC2`, the figure is 0.4; as for `O=c1c2c(nc3ccccn13)CCCC2`, 1.63.
The value for `CC1CCc2nc3c(c(=O)n2C1)CCCC3` (configuration not stated) was 1.7; that for `Cc1ccn2c(=O)ccnc2c1` was 0.56.
As for `Cc1ccc2nc3c(c(=O)n2c1)CCCC3`, the figure is 2.07; as for `O=c1c2c(nc3n1CCCCC3)CCCCC2`, 2.18; as for `O=c1c2ccccc2nc2n1CCCCC2`, 1.98.
